Source: patent US8063048B2, “Acetylenyl-pyrazolo-pyrimidine derivatives” (Hoffmann-La Roche Inc., priority 2005, dated 2011)

melting point [°C] | SMILES
248 to 250 | NS(=O)(=O)c1ccc(C#Cc2cnc3c(C(F)(F)F)cc(-c4ccc(C(F)(F)F)cc4)cn23)s1 [Example 193, 5-[8-Trifluoromethyl-6-(4-trifluoromethyl-phenyl)-imidazo[1,2-a]pyridin-3-ylethynyl]-thiophene-2-sulfonic acid amide]
240 | NS(=O)(=O)c1cccc(C#Cc2cnc3c(C(F)(F)F)cc(-c4ccc(C(F)(F)F)cc4)cn23)c1 [Example 194, 3-[8-Trifluoromethyl-6-(4-trifluoromethyl-phenyl)-imidazo[1,2-a]pyridin-3-ylethynyl]-benzenesulfonamide]
157 to 158 | CC(O)c1ccc(C#Cc2cnc3c(C(F)(F)F)cc(-c4ccc(C(F)(F)F)cc4)cn23)cc1 (stereo not drawn) [Example 195, 1-{4-[8-Trifluoromethyl-6-(4-trifluoromethyl-phenyl)-imidazo[1,2-a]pyridin-3-ylethynyl]-phenyl}-ethanol]
202 to 203 | CC(C)(CO)NS(=O)(=O)c1cnc(C#Cc2cnc3c(C(F)(F)F)cc(-c4ccc(C(F)(F)F)cc4)cn23)s1 [Example 196, 2-[8-Trifluoromethyl-6-(4-trifluoromethyl-phenyl)-imidazo[1,2-a]pyridin-3-ylethynyl]-thiazole-5-sulfonic acid (2-hydroxy-1,1-dimethyl-ethyl)-amide]
260 | NC(=O)c1ccc(C#Cc2cnn3c(C(F)(F)F)cc(-c4ccc(C(F)(F)F)cc4)nc23)cc1 [Example 197, 4-[7-Trifluoromethyl-5-(4-trifluoromethyl-phenyl)-pyrazolo[1,5-a]pyrimidin-3-ylethynyl]-benzamide]
187 | CNc1ccc(C#Cc2cnn3c(C(F)(F)F)cc(-c4ccc(C(F)(F)F)cc4)nc23)cn1 [Example 199, Methyl-{5-[7-trifluoromethyl-5-(4-trifluoromethyl-phenyl)-pyrazolo[1,5-a]pyrimidin-3-ylethynyl]-pyridin-2-yl}-amine]
202 to 203 | OCCNc1ccc(C#Cc2cnn3c(C(F)(F)F)cc(-c4ccc(C(F)(F)F)cc4)nc23)cn1 [Example 200, 2-{5-[7-Trifluoromethyl-5-(4-trifluoromethyl-phenyl)-pyrazolo[1,5-a]pyrimidin-3-ylethynyl]-pyridin-2-ylamino}-ethanol]
167 to 168 | CCOc1cccc(-c2cc(C(F)F)n3ncc(C#Cc4cccc(S(N)(=O)=O)c4)c3n2)c1 [Example 201, 3-[7-Difluoromethyl-5-(3-ethoxy-phenyl)-pyrazolo[1,5-a]pyrimidin-3-ylethynyl]-benzenesulfonamide]
170 to 171 | CC(C)(O)c1ccc(C#Cc2cnn3c(C(F)(F)F)cc(-c4ccc(C(F)(F)F)cc4)nc23)cc1 [Example 202, 2-{4-[7-Trifluoromethyl-5-(4-trifluoromethyl-phenyl)-pyrazolo[1,5-a]pyrimidin-3-ylethynyl]-phenyl}-propan-2-ol]
286 | NC(=O)c1ccc(C#Cc2cnc3c(C(F)(F)F)cc(-c4ccc(C(F)(F)F)cc4)cn23)cc1 [Example 203, 4-[8-Trifluoromethyl-6-(4-trifluoromethyl-phenyl)-imidazo[1,2-a]pyridin-3-ylethynyl]-benzamide]
177 | OCc1cccc(C#Cc2cnn3c(C(F)(F)F)cc(-c4ccc(C(F)(F)F)cc4)nc23)c1 [Example 204, {3-[7-Trifluoromethyl-5-(4-trifluoromethyl-phenyl)-pyrazolo[1,5-a]pyrimidin-3-ylethynyl]-phenyl}-methanol]
255 to 256 | Nc1ncc(C#Cc2cnn3c(C(F)(F)F)cc(-c4ccc(C(F)(F)F)cc4)nc23)cn1 [Example 205, 5-[7-Trifluoromethyl-5-(4-trifluoromethyl-phenyl)-pyrazolo[1,5-a]pyrimidin-3-ylethynyl]-pyrimidin-2-ylamine]
276 to 277 | NC(=O)c1ccc(C#Cc2cnn3c(C(F)F)cc(-c4ccc(C(F)(F)F)cc4)nc23)cn1 [Example 206, 5-[7-Difluoromethyl-5-(4-trifluoromethyl-phenyl)-pyrazolo[1,5-a]pyrimidin-3-ylethynyl]-pyridine-2-carboxylic acid amide]
238 | CC(=O)Nc1ccc(C#Cc2cnn3c(C(F)(F)F)cc(-c4ccc(C(F)(F)F)cc4)nc23)cc1 [Example 207, N-{4-[7-Trifluoromethyl-5-(4-trifluoromethyl-phenyl)-pyrazolo[1,5-a]pyrimidin-3-ylethynyl]-phenyl}-acetamide]
162 | CCOc1cccc(-c2cc(C(F)F)n3ncc(C#Cc4ccc(N)nc4)c3n2)c1 [Example 208, 5-[7-Difluoromethyl-5-(3-ethoxy-phenyl)-pyrazolo[1,5-a]pyrimidin-3-ylethynyl]-pyridin-2-ylamine]
239 to 240 | Cc1cc(-c2ccc(C(F)(F)F)cc2)cn2c(C#Cc3ccc(N)nc3)cnc12 [Example 209, 5-[8-Methyl-6-(4-trifluoromethyl-phenyl)-imidazo[1,2-a]pyridin-3-ylethynyl]-pyridin-2-ylamine]
231 to 234 | Cc1cc(-c2ccc(Cl)cc2)cn2c(C#Cc3ccc(N)nc3)cnc12 [Example 210, 5-[6-(4-Chloro-phenyl)-8-methyl-imidazo[1,2-a]pyridin-3-ylethynyl]-pyridin-2-ylamine]

melting point [°C] | SMILES
265 to 266 | Cc1cc(-c2ccc(Cl)cc2)cn2c(C#Cc3ccc(S(N)(=O)=O)s3)cnc12 [Example 211, 5-[6-(4-Chloro-phenyl)-8-methyl-imidazo[1,2-a]pyridin-3-ylethynyl]-thiophene-2-sulfonic acid amide]
270 | Cc1cc(-c2ccc(C(F)(F)F)cc2)cn2c(C#Cc3ccc(S(N)(=O)=O)s3)cnc12 [Example 212, 5-[8-Methyl-6-(4-trifluoromethyl-phenyl)-imidazo[1,2-a]pyridin-3-ylethynyl]-thiophene-2-sulfonic acid amide]
242 to 243 | Nc1ncc(C#Cc2cnn3c(C(F)F)cc(-c4ccc(C(F)(F)F)cc4)nc23)cn1 [Example 213, 5-[7-Difluoromethyl-5-(4-trifluoromethyl-phenyl)-pyrazolo[1,5-a]pyrimidin-3-ylethynyl]-pyrimidin-2-ylamine]
267 to 269 | N#Cc1cc(-c2ccc(C(F)(F)F)cc2)cn2c(C#Cc3ccc(S(N)(=O)=O)s3)cnc12 [Example 214, 5-[8-Cyano-6-(4-trifluoromethyl-phenyl)-imidazo[1,2-a]pyridin-3-ylethynyl]-thiophene-2-sulfonic acid amide]
261 to 263 | CS(=O)(=O)Nc1ccc(C#Cc2cnn3c(C(F)(F)F)cc(-c4ccc(C(F)(F)F)cc4)nc23)cn1 [Example 216, N-{5-[7-Trifluoromethyl-5-(4-trifluoromethyl-phenyl)-pyrazolo[1,5-a]pyrimidin-3-ylethynyl]-pyridin-2-yl}-methanesulfonamide]
206 to 210 | NS(=O)(=O)c1ccc(C#Cc2cnc3ccc(-c4ccc(C(F)(F)F)cc4)cn23)s1 [Example 217, 5-[6-(4-Trifluoromethyl-phenyl)-imidazo[1,2-a]pyridin-3-ylethynyl]-thiophene-2-sulfonic acid amide]
255 | N#Cc1cc(C#Cc2cnn3c(C(F)F)cc(-c4ccc(C(F)(F)F)cc4)nc23)cnc1N [Example 218, 2-Amino-5-[7-difluoromethyl-5-(4-trifluoromethyl-phenyl)-pyrazolo[1,5-a]pyrimidin-3-ylethynyl]-nicotinonitrile]
264 | N#Cc1cc(C#Cc2cnn3c(C(F)(F)F)cc(-c4ccc(C(F)(F)F)cc4)nc23)cnc1N [Example 219, 2-Amino-5-[7-trifluoromethyl-5-(4-trifluoromethyl-phenyl)-pyrazolo[1,5-a]pyrimidin-3-ylethynyl]-nicotinonitrile]
236 | Cc1cc(-c2ccc(C(F)(F)F)cc2)cn2c(C#Cc3cnc(N)nc3)cnc12 [Example 220, 5-[8-Methyl-6-(4-trifluoromethyl-phenyl)-imidazo[1,2-a]pyridin-3-ylethynyl]-pyrimidin-2-ylamine]
263 | Cc1cc(-c2ccc(Cl)cc2)cn2c(C#Cc3cnc(N)nc3)cnc12 [Example 221, 5-[6-(4-Chloro-phenyl)-8-methyl-imidazo[1,2-a]pyridin-3-ylethynyl]-pyrimidin-2-ylamine]
230 | Nc1ncc(C#Cc2cnn3c(C(F)(F)F)cc(-c4ccc(C(F)(F)F)cc4)nc23)cc1C(F)(F)F [Example 222, 3-Trifluoromethyl-5-[7-trifluoromethyl-5-(4-trifluoromethyl-phenyl)-pyrazolo[1,5-a]pyrimidin-3-ylethynyl]-pyridin-2-ylamine]
209 | Nc1ncc(C#Cc2cnn3c(C(F)(F)F)cc(-c4ccc(Cl)cc4)nc23)cc1C(F)(F)F [Example 223, 5-[5-(4-Chloro-phenyl)-7-trifluoromethyl-pyrazolo[1,5-a]pyrimidin-3-ylethynyl]-3-trifluoromethyl-pyridin-2-ylamine]
261 | NS(=O)(=O)c1ccc(C#Cc2cnc3c(C4CC4)cc(-c4ccc(C(F)(F)F)cc4)cn23)s1 [Example 224, 5-[8-Cyclopropyl-6-(4-trifluoromethyl-phenyl)-imidazo[1,2-a]pyridin-3-ylethynyl]-thiophene-2-sulfonic acid amide]
266 | CC(=O)Nc1ccc(C#Cc2cnn3c(C(F)(F)F)cc(-c4ccc(C(F)(F)F)cc4)nc23)cn1 [Example 225, N-{5-[7-Trifluoromethyl-5-(4-trifluoromethyl-phenyl)-pyrazolo[1,5-a]pyrimidin-3-ylethynyl]-pyridin-2-yl}-acetamide]
290 | N#Cc1cc(-c2ccc(C(F)(F)F)cc2)cn2c(C#Cc3cnc(N)nc3)cnc12 [Example 227, 3-(2-Amino-pyrimidin-5-ylethynyl)-6-(4-trifluoromethyl-phenyl)-imidazo[1,2-a]pyridine-8-carbonitrile]
189 | Cc1cc(-c2ccc(C(F)(F)F)cc2)cn2c(C#Cc3cncc(S(=O)(=O)NC(C)(C)CO)c3)cnc12 [Example 228, 5-[8-Methyl-6-(4-trifluoromethyl-phenyl)-imidazo[1,2-a]pyridin-3-ylethynyl]-pyridine-3-sulfonic acid (2-hydroxy-1,1-dimethyl-ethyl)-amide]
